{"source": "patent US20250000841A1", "about": "“Administration of Resiniferatoxin For Treatment of Prostate Cancer” (Sorrento Therapeutics, Inc., priority 2021, published 2025)", "key": {"[1]": {"system": "human prostate cancer cell line DU145", "assay": "proliferation assay, prostate cancer cell line DU145", "assay_type": "cell-based", "details": "DU145 cells cultured with varying amounts of RTX, FIG. 2C", "excerpt": "(§1) Proliferation measurements were normalized to an untreated control."}, "[2]": {"system": "human prostate cancer cell line LNCaP", "assay": "proliferation assay, prostate cancer cell line LNCaP", "assay_type": "cell-based", "details": "LNCaP cells cultured with varying amounts of RTX, FIG. 2C", "excerpt": "as §1"}, "[3]": {"system": "human DU145 prostate carcinoma cells engrafted s.c.", "assay": "mouse xenograft tumor model, tumor volume over time", "assay_type": "in vivo", "details": "0.1, 0.5 and 1 μg/dose, local (peritumoral) every other day from day 28 after engraftment, FIG. 3A", "description": "(§2) FIGS. 3A, 3B and 3C show RTX inhibits prostate carcinoma progression in a cytostatic manner. […] RTX was administered locally (peritumorally) every other day at the indicated dose starting at 28 days after engraftment. The cytostatic activity appeared to be dose-independent in the tested range of 0.1-1 μg/dose. […] Scale, 100 μm. CD31+ blood vessel length and cleaved caspase 3 levels (expressed as median fluorescence intensity, MFI) are quantified in FIG. 3C."}, "[4]": {"system": "human DU145 prostate carcinoma xenograft tumor tissue", "assay": "H&E staining and immunofluorescence of dissected xenograft tumor tissues", "assay_type": "in vivo, mouse", "details": "immunofluorescence of tumor tissue, FIG. 3C", "description": "as §2\nDissected tumor tissues were assessed by H&E staining and by immunofluorescence for CD31 (tumor vessel marker), DRAQ7 (nuclear marker), and cleaved caspase 3 (apoptotic cell maker). […] (FIG. 3B, upper row). […] (FIG. 3B, middle row)."}, "[5]": {"system": "tumor associated inflammatory cytokines (IL-6, IFNγ)", "assay": "cytokine array of xenograft tumor tissue homogenates", "assay_type": "in vivo, mouse", "excerpt": "Reduced IL-6 expression in a dose-dependent manner is shown magnified (FIG. 4A).\nSome studies of RTX have reported a potential to induce neurologic inflammatory responses. […] Tumor tissue homogenate samples from mouse xenograft tumor models described in Example B were taken at necroptic endpoint and analyzed for tumor associated inflammatory cytokine levels using a cytokine array (FIG. 4A)."}}, "data": [{"smiles": "C=C(C)[C@]12C[C@@H](C)[C@@]34O[C@](Cc5ccccc5)(O[C@@H]1[C@@H]3C=C(COC(=O)Cc1ccc(O)c(OC)c1)C[C@]1(O)C(=O)C(C)=C[C@@H]41)O2", "note": "[RTX, Resiniferatoxin]", "values": [{"measurement": "proliferation (normalized to untreated control)", "setting": "[1]", "value": "dose-dependent decreases in proliferation"}, {"measurement": "proliferation (normalized to untreated control)", "setting": "[2]", "value": "dose-dependent decreases in proliferation"}, {"measurement": "cytostatic efficacy (tumor volume)", "setting": "[3]", "value": "potent cytostatic efficacy in a dose-independent manner"}, {"measurement": "tumor cell apoptosis (cleaved caspase 3 staining)", "setting": "[4]; FIG. 3B lower row", "value": "tumor cell apoptosis increased"}, {"measurement": "CD31+ tumor vasculature", "setting": "[4]; FIG. 3B middle row", "value": "decreased contiguous CD31+ stained structures"}, {"measurement": "Cytokine Release Syndrome (inflammatory cytokine expression)", "setting": "[5]; tumor homogenates taken at necroptic endpoint, FIG. 4A", "value": "no indication of Cytokine Release Syndrome (CRS)"}, {"measurement": "IFNγ expression", "setting": "[5]; tumor homogenates, cytokine array", "value": "did not induce elevated expression of IFNγ"}, {"measurement": "IL-6 expression", "setting": "[5]; tumor homogenates, higher RTX doses, FIG. 4A-C", "value": "reduced expression"}]}]}
